Test results published in patent US8318812B2, “Therapeutic agents for the treatment of lymphoid malignancies” (The Ohio State University Research Foundation, priority 2006, dated 2012).

Experiments:
[1] = test system: MEC, Ramos, Raji, 697 and RS4-11 B cell lines; assay: Annexin V/PI viability by flow cytometry in B cell lines; assay type: cell-based, Human; settings: Ramos cells; okadaic acid pretreatment
Experimental: Cells: Blood was obtained from patients with B-cell CLL with informed consent under a protocol approved by the hospital internal review board. All patients examined in this series had immunophenotypically defined CLL as outlined by the modified 96 National Cancer Institute criteria. B-CLL cells were isolated from freshly donated blood using ficoll density gradient centrifugation (Ficoll-Paque Plus, Amershan Biosciences, Piscataway, N.J.). Isolated mononuclear cells were incubated in RPMI 1640 media (Gibco/Invitrogen, Carlsbad, Calif.) supplemented with 10% heat-inactivated fetal bovine serum (FBS, Hyclone Laboratories, Logan, Utah), 2 mM L-glutamine (Invitrogen, Carlsbad, Calif.), and penicillin (100 U/mL)/streptomycin (100 μg/ml) [Sigma-Aldrich, St. Louis] at 37° C. in an atmosphere of 5% CO2. Freshly isolated B-CLL cells were used in all experiments described herein. […]
Analysis of cell viability and apoptosis: The cell viability was carried out by dual staining with Annexin V conjugated to flourescein-isothyocyanate (FITC) and Propidium iodide (PI) as described previously. Briefly, 1×10^6 cells were stained with Annexin V-FITC (BD Pharmingen) and Propidium iodide (BD Pharmingen) for 15 minutes in dark and analyzed by flow cytometry using a Beckman-Coulter EPICS XL cytometer (Beckman-Coulter, Miami, Fla.). […]

[2] = test system: CD19+ B cells from CLL patients; assay type: cell-based; settings: CLL cells
Experimental: Cells: Blood was obtained from patients with B-cell CLL with informed consent under a protocol approved by the hospital internal review board. All patients examined in this series had immunophenotypically defined CLL as outlined by the modified 96 National Cancer Institute criteria. B-CLL cells were isolated from freshly donated blood using ficoll density gradient centrifugation (Ficoll-Paque Plus, Amershan Biosciences, Piscataway, N.J.). Isolated mononuclear cells were incubated in RPMI 1640 media (Gibco/Invitrogen, Carlsbad, Calif.) supplemented with 10% heat-inactivated fetal bovine serum (FBS, Hyclone Laboratories, Logan, Utah), 2 mM L-glutamine (Invitrogen, Carlsbad, Calif.), and penicillin (100 U/mL)/streptomycin (100 μg/ml) [Sigma-Aldrich, St. Louis] at 37° C. in an atmosphere of 5% CO2. Freshly isolated B-CLL cells were used in all experiments described herein. Enriched B-lymphocyte fractions were prepared by using MACS negative selection kit by Miltenyi Biotech (Auburn, Calif.) or by “Rosette-Sep” kit from Stem Cell Technologies (Vancouver, British Columbia, Canada) according to the manufacturer's instructions. Human B-lymphocyte cell lines Raji and Ramos were obtained from ATCC (Manassas, Va.) and the MEC cells were obtained from German cell line bank (Braunschweig, Germany). The 697-neo and 697-Bcl-2 cell lines were kind gift from Dr. John Reed (Burnham Institute, La Jolla, Calif.). Cells were cultured at 37° C. in an atmosphere of 5% CO2 in RPMI 1640 media (Gibco/Invitrogen, Carlsbad, Calif.) supplemented with 10% fetal bovine serum (Gibco/Invitrogen).
Analysis of cell viability and apoptosis: The cell viability was carried out by dual staining with Annexin V conjugated to flourescein-isothyocyanate (FITC) and Propidium iodide (PI) as described previously. Briefly, 1×10^6 cells were stained with Annexin V-FITC (BD Pharmingen) and Propidium iodide (BD Pharmingen) for 15 minutes in dark and analyzed by flow cytometry using a Beckman-Coulter EPICS XL cytometer (Beckman-Coulter, Miami, Fla.). Apoptotic cells were identified as Annexin V and/or PI positive cells. Cells excluding both FITC and PI were considered to be viable. The Annexin V^−/PI^− cells are represented as % live cells normalized to untreated controls.
B-CLL cells are reported to be resistant to apoptosis in-vivo. To systematically analyze the effects of FTY720 on B-CLL cells, purified CD19^+ cells from B-CLL patients were incubated with increasing concentrations of FTY720 ranging from 0, 0.5, 1, 1.5, 2.5, 5 or 10 uM. The cytotoxic effects were independently determined by flow cytometry using propidium iodide (PI) and Annexin V conjugated FITC reagents. Populations excluding both PI and Annexin V-FITC staining were considered viable. […]

PP2A [3] = assay: PP2A activity (malachite green phosphatase assay) in lysates of CLL cells; assay type: cell-based, Human; settings: pretreatment with 5 nM okadaic acid
Experimental: (§1) PP2A Activity: The protein phosphatase activity of total cellular lysate was determined by measuring the generation of free PO4 from the threonine phosphopeptide using the malachite green-phosphate complex assay as described by the manufacturer (Upstate, Charlottesville, […].). Cell lysates were prepared in a low detergent lysis buffer (1% Nonidet P-40, 10 mM HEPES, 0.5M NaCl, 10% Glycerol, 1 mM PMSF, 5 mM Benzamidine, 10 μg/ml leupeptin). The phosphatase assay was performed in a PP2A-specific reaction buffer (Upstate) using 750 μM phosphopeptide substrate. After 30-min incubation at 30° C. malachite dye was added, and free phosphate was measured by optical density at 650 nm. To avoid variability among different immunoprecipitated samples, the phosphatase activities were normalized with the amount of PP2A immunoprecipitated, as detected and quantified by western blot analysis of each treatment group.
In order to determine if FTY720 induced activation of PP2A enzyme in CD19^+ B cells from CLL patients were treated with 10 uM FTY720 for 0, 1, 2, 3, 4 and 15 hrs and the PP2A activity in the lysates were quantified using a functional assay following immunoprecipitation of PP2A enzyme. As reported previously in other systems, FTY720 induced a consistent 2-3 fold increase in PP2A activation with the peak response observed at 4 hour post treatment (FIG. 6a). […] Similar phenomenon was also observed in Ramos B cell line. FTY720 induced activation of PP2A in Ramos cell line as early as 3 hours and this induced PP2A activity was inhibited by okadaic acid (FIG. 7a-b).

PP2A [4] = assay: PP2A activity in lysates of Ramos B cell line; assay type: cell-based, Human
Experimental: as §1
In order to determine if FTY720 induced activation of PP2A enzyme in CD19^+ B cells from CLL patients were treated with 10 uM FTY720 for 0, 1, 2, 3, 4 and 15 hrs and the PP2A activity in the lysates were quantified using a functional assay following immunoprecipitation of PP2A enzyme. As reported previously in other systems, FTY720 induced a consistent 2-3 fold increase in PP2A activation with the peak response observed at 4 hour post treatment (FIG. 6a). […]

Mino cells = assay: Annexin V/PI toxicity in Mino cells; assay type: cell-based, Human; settings: 150 μM z-VAD-fmk
Experimental: Primary MCL cells were isolated from PBMC (with informed patient consent under a protocol approved by IRB) as described before. All the MCL patients were identified as outlined by the World Health Organization (WHO) classification. Human mantle cell lymphoma patient cell lines (Mino and Jeko) were obtained from Dr. Raymond Lai. Primary cells or MCL cell lines were incubated in RPMI 1640 media, supplemented with 10%-20% heat-inactivated fetal bovine serum, 2 mM L-glutamine and penicillin (100 U/mL)/streptomycin ([…]) at 37° C. in an atmosphere of 5% CO2. FTY720 was synthesized as previously described. Toxicity was determined by flow cytometry using Annexin-V-FITC and Propidium Iodide (PI) staining. Apoptotic cells were identified as Annexin-V+ and/or PI+ cells. Cells excluding both FITC and PI were considered viable. Western Blotting was performed as described previously using indicated antibodies. The PARP (Ab-2) and Caspase 9 antibodies were purchased from Oncogene/Calbiochem/EMD Biosciences (San Diego, Calif.). Cyclin D1, Akt, Actin, Mcl-1, p-ERK, ERK and Bcl-2 were obtained from Santa Cruz biotech (Santa Cruz, Calif.).
Several therapeutic agents, including fludarabine, chlorambucil, 2-chloro-2-deoxyadenosine and glucocorticoids, induce toxicity in B cell malignancies through activating caspases, the cysteine proteases of CED3/ICE family. Inhibition of these caspases results in abrogation of apoptosis mediated by the toxic stimuli. To determine if caspase activation is involved in FTY720-induced cytotoxicity in MCL, we pretreated Mino cells with 150 μM broad spectrum caspase inhibitor z-VAD-fmk. […] Activation of caspases results in cleavage of key cellular proteins including poly-ADP-ribose polymerase (PARP).

Row | Compound | effect of okadaic acid on FTY720 induced apoptosis [1] | effect of okadaic acid on FTY720 induced cellular cytotoxicity ([2]; okadaic acid pretreatment) | inhibition of the FTY720 induced PP2A activation (PP2A [3]) [fold] | effect of okadaic acid on FTY720 induced PP2A activity (PP2A [4]) | effect of z-VAD-fmk on FTY720 induced apoptosis ([2]; z-VAD-fmk 150 uM) | effect of z-VAD-fmk on fludarabine induced apoptosis ([2]; z-VAD-fmk 150 uM) | reduction in FTY720 induced apoptosis (Mino cells) [%] | reduction in fludarabine induced apoptosis (Mino cells) [%]
1 | C=C1[C@@H](O)[C@@H]2O[C@]3(CC[C@H](/C=C/[C@@H](C)[C@@H]4CC(C)=C[C@@]5(O[C@H](C[C@@](C)(O)C(=O)O)CC[C@H]5O)O4)O3)CC[C@H]2O[C@@H]1[C@@H](O)C[C@H](C)[C@H]1O[C@@]2(CCCCO2)CC[C@H]1C [okadaic acid] | inhibition of FTY720 induced apoptosis | inhibition of FTY720 induced cellular cytotoxicity | ≤ 3 | inhibited |  |  |  | 
2 | z-VAD-fmk |  |  |  |  | failed to prevent FTY720 induced apoptosis | effectively rescued fludarabine induced apoptosis | ~50 | ~50
